{"source": "patent US8802853B2", "about": "“Arylalkenyl and arylalkynyl substituted imidazoquinolines” (3M Innovative Properties Company, priority 2003, dated 2014)", "note": "Counter-ions that a name gives are not always drawn."}
{"smiles": "CCc1nc2c(N)nc3ccccc3c2n1CC#Cc1cccnc1", "note": "(as salt: hydroiodid) [Example 1, 2-Ethyl-1-[3-(pyridin-3-yl)-2-propynyl]-1H-imidazo[4,5-c]quinolin-4-amine]", "melting point": "249 to 251 °C (dec.)"}
{"smiles": "CCc1nc2c(N)nc3ccccc3c2n1CC#Cc1cccs1", "note": "(as salt: hydroiodid) [Example 2, 2-Ethyl-1-[3-(thien-2-yl)-2-propynyl]-1H-imidazo[4,5-c]quinolin-4-amine]", "melting point": "185 to 205 °C"}
{"smiles": "CCc1nc2c(N)nc3ccccc3c2n1CC#Cc1ccccc1", "note": "(as salt: hydroiodid) [Example 4, 2-Ethyl-1-(3-phenyl-2-propynyl)-1H-imidazo[4,5-c]quinolin-4-amine]", "melting point": "200 to 212 °C (dec.)"}
{"smiles": "CCc1nc2c(N)nc3ccccc3c2n1CC#Cc1cnccn1", "note": "(as salt: hydroiodid) [Example 5, 2-Ethyl-1-[3-(pyrazin-2-yl)-2-propynyl]-1H-imidazo[4,5-c]quinolin-4-amine]", "melting point": "180 to 225 °C (dec.)"}
{"smiles": "CCc1nc2c(N)nc3ccccc3c2n1CCCC#Cc1ccc(OC)cc1", "note": "(as salt: hydroiodid) [Example 14, 2-Ethyl-1-[5-(4-methoxyphenyl)-4-pentynyl]-1H-imidazo[4,5-c]quinolin-4-amine]", "melting point": "230 °C"}
{"smiles": "CCOC(=O)c1ccc(C#CCn2c(CC)nc3c(N)nc4ccccc4c32)cc1", "note": "[Example 6, Ethyl 4-[3-(4-Amino-2-ethyl-1H-imidazo[4,5-c]quinolin-1-yl)-1-propynyl]benzoate]", "melting point": "221 to 222 °C (dec.)"}
{"smiles": "CCc1nc2c(N)nc3ccccc3c2n1CC#Cc1ccc(OC)cc1", "note": "[Example 7, 2-Ethyl-1-[3-(4-methoxyphenyl)-2-propynyl]-1H-imidazo[4,5-c]quinolin-4-amine]", "melting point": "179 to 181 °C"}
{"smiles": "CCc1nc2c(N)nc3ccccc3c2n1CC#Cc1cccc(C(F)(F)F)c1", "note": "[Example 8, 2-Ethyl-1-[3-(3-trifluoromethylphenyl)-2-propynyl]-1H-imidazo[4,5-c]quinolin-4-amine]", "melting point": "202.5 to 203.5 °C"}
{"smiles": "CCc1nc2c(N)nc3ccccc3c2n1CC#Cc1ccccc1C(F)(F)F", "note": "[Example 9, 2-Ethyl-1-[3-(2-trifluoromethylphenyl)-2-propynyl]-1H-imidazo[4,5-c]quinolin-4-amine]", "melting point": "234 to 235 °C (dec.)"}
{"smiles": "CCc1nc2c(N)nc3ccccc3c2n1CC#Cc1ccc([N+](=O)[O-])cc1", "note": "[Example 10, 2-Ethyl-1-[3-(4-nitrophenyl)-2-propynyl]-1H-imidazo[4,5-c]quinolin-4-amine]", "melting point": "190 to 206 °C"}
{"smiles": "CCc1nc2c(N)nc3ccccc3c2n1CC#Cc1cccc([N+](=O)[O-])c1", "note": "[Example 11, 2-Ethyl-1-[3-(3-nitrophenyl)-2-propynyl]-1H-imidazo[4,5-c]quinolin-4-amine]", "melting point": "224 to 243 °C"}
{"smiles": "CCc1nc2c(N)nc3ccccc3c2n1CCCC#Cc1cccs1", "note": "[Example 12, 2-Ethyl-1-[5-(thien-2-yl)-4-pentynyl]-1H-imidazo[4,5-c]quinolin-4-amine]", "melting point": "175 to 190 °C (dec.)"}
{"smiles": "CCc1nc2c(N)nc3ccccc3c2n1CCCC#Cc1cccnc1", "note": "[Example 13]", "melting point": "188 to 192 °C"}
{"smiles": "CCc1nc2c(N)nc3ccccc3c2n1CCCC#Cc1ccccc1", "note": "[Example 15, 2-Ethyl-1-(5-phenyl-4-pentynyl)-1H-imidazo[4,5-c]quinolin-4-amine]", "melting point": "199 to 202 °C"}
{"smiles": "CCc1nc2c(N)nc3ccccc3c2n1CCCC#Cc1cccc(C(F)(F)F)c1", "note": "[Example 16, 2-Ethyl-1-[5-(3-trifluoromethylphenyl)-4-pentynyl]-1H-imidazo[4,5-c]quinolin-4-amine]", "melting point": "178 to 181 °C"}
{"smiles": "CCc1nc2c(N)nc3ccccc3c2n1CCC/C=C/c1cccnc1", "note": "[Example 17, (E)-2-Ethyl-1-[5-(pyridin-3-yl)-4-pentenyl]-1H-imidazo[4,5-c]quinolin-4-amine]", "melting point": "188 to 190 °C"}
{"smiles": "CCc1nc2c(N)nc3ccccc3c2n1CCC/C=C/c1ccc(OC)cc1", "note": "[Example 18, (E)-2-Ethyl-1-[5-(4-methoxyphenyl)-4-pentenyl]-1H-imidazo[4,5-c]quinolin-4-amine]", "melting point": "179 to 180 °C"}
